The compounds below were run against human RIP1 kinase domain (2-375) (Homo sapiens (Human), UniProt Q13546) (assay: biochemical). Settings: Ki.
Format: biochemical
Method in brief: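 50 nM purified kinase domain from baculovirus-infected insect cells, incubated 2 h with compound in 50 mM Hepes pH 7.5, 30 mM MgCl2, 1 mM DTT, 50 uM ATP, 0.002% Brij-35, 0.5% DMSO. ADP formation read by Transcreener FP at 633 nm excitation. Ki^app fitted with the Morrison tight-binding equation.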

human RIP1 kinase domain (2-375), sequence (Q13546 2-375): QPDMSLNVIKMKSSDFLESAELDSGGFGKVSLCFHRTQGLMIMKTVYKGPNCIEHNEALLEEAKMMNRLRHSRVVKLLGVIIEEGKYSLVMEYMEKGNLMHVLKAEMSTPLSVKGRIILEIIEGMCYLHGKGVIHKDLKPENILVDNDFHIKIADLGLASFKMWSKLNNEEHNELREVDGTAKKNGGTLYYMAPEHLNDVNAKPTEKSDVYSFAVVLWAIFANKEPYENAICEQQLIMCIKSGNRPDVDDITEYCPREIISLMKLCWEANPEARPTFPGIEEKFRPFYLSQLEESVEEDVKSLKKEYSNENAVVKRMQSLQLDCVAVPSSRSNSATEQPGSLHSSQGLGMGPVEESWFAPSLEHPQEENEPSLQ

Ki [µM]	SMILES
0.039	CN1C(=O)[C@@H](NC(=O)c2ncc3cnn(C4CCOCC4)c3n2)COc2ccccc21 [Example 558, N-[(3S)-5-methyl-4-oxo-2,3-dihydro-1,5-benzoxazepin-3-yl]-1-tetrahydropyran-4-yl-pyrazolo[3,4-d]pyrimidine-6-carboxamide]

Same assay, conditions: Table 1; apparent Ki (Morrison tight-binding fit); 50 nM RIP1 kinase domain, 50 uM ATP, 2 hours incubation; read-out: RIP1 Ki

SMILES	Ki [µM]
CC1CCc2onc(C(=O)N[C@H]3COc4ccccc4NC3=O)c2C1 (stereo partly drawn) [Example 63, 5-methyl-N-((S)-4-oxo-2,3,4,5-tetrahydrobenzo[b][1,4]oxazepin-3-yl)-4,5,6,7-tetrahydrobenzo[d]isoxazole-3-carboxamide]	0.74
O=C(N[C@H]1COc2ccccc2NC1=O)c1n[nH]c2c1CC1CC1C2 (stereo partly drawn) [Example 4, N—((S)-4-oxo-2,3,4,5-tetrahydrobenzo[b][1,4]oxazepin-3-yl)-1,4,4a,5,5a,6-hexahydrocyclopropa[f]indazole-3-carboxamide]	5.5

Same assay, conditions: Table 5; apparent Ki (Morrison tight-binding fit); 50 nM RIP1 kinase domain, 50 uM ATP, 2 hours incubation; read-out: Ki

Ki [µM]	SMILES
0.003	CCC[C@@H]1CCCc2nc(C(=O)N[C@H]3COc4cc(F)cc(F)c4NC3=O)nn21 (single isomer, unassigned) [Example 716]
0.155	CN1C(=O)[C@@H](NC(=O)c2ncn(Cc3ccccc3)n2)CCn2nc(CN3CCOCC3)cc21 (single isomer, unassigned) [Example 720]

Same assay, conditions: human RIP1 kinase domain (2-375), 50 uM ATP, 2 hours incubation, Transcreener ADP assay; read-out: RIP1 Ki

Ki [µM]	SMILES
0.167	CN1C(=O)[C@@H](NC(=O)c2n[nH]c3ccc(C#N)cc23)COc2ccccc21 [Example 83, (S)-5-cyano-N-(5-methyl-4-oxo-2,3,4,5-tetrahydrobenzo[b][1,4]oxazepin-3-yl)-1H-indazole-3-carboxamide]
0.0471	Cc1cc2n(n1)CC[C@H](NC(=O)c1ncn(Cc3ccc(F)c(F)c3)n1)C(=O)N2C [Example 220, (S)-1-(3,4-difluorobenzyl)-N-(2,4-dimethyl-5-oxo-5,6,7,8-tetrahydro-4H-pyrazolo[1,5-a][1,3]diazepin-6-yl)-1H-1,2,4-triazole-3-carboxamide]
0.105	CN1C(=O)[C@@H](NC(=O)c2nnn3c2CC(C(F)(F)F)CC3)COc2ccccc21 (stereo partly drawn) [Example 192, N—((S)-5-methyl-4-oxo-2,3,4,5-tetrahydrobenzo[b][1,4]oxazepin-3-yl)-5-(trifluoromethyl)-4,5,6,7-tetrahydro-[1,2,3]triazolo[1,5-a]pyridine-3-carboxamide]
0.0167	Cc1cc(F)c2c(c1)OC[C@H](NC(=O)c1n[nH]c3c1C[C@@H](C(F)(F)F)CC3)C(=O)N2 [Example 88, (S)—N—((S)-6-fluoro-8-methyl-4-oxo-2,3,4,5-tetrahydrobenzo[b][1,4]oxazepin-3-yl)-5-(trifluoromethyl)-4,5,6,7-tetrahydro-1H-indazole-3-carboxamide]
0.0658	CN1C(=O)C(NC(=O)c2ncn(Cc3ccccc3)n2)CCn2nc3c(c21)CSC3 (centres unmarked) [Example 142, 1-benzyl-N-(1-methyl-2-oxo-1,2,3,4,5,10-hexahydro-8H-thieno[3′,4′:3,4]pyrazolo[1,5-a][1,3]diazepin-3-yl)-1H-1,2,4-triazole-3-carboxamide]

Same assay, conditions: human RIP1 kinase domain (2-375), Transcreener ADP assay, 50 uM ATP, 2 hours incubation; read-out: RIP1 Ki

Ki [µM]	SMILES
0.088	CN1C(=O)[C@@H](NC(=O)c2nnc(Cc3ccc(F)cc3)[nH]2)CCn2nc(C3CC3)cc21 [Example 332, (S)—N-(2-cyclopropyl-4-methyl-5-oxo-5,6,7,8-tetrahydro-4H-pyrazolo[1,5-a][1,3]diazepin-6-yl)-5-(4-fluorobenzyl)-4H-1,2,4-triazole-3-carboxamide]
0.289	CN1C(=O)[C@@H](NC(=O)c2n[nH]c3ncc(C4CC4)cc23)COc2ccccc21 [Example 239, (S)-5-cyclopropyl-N-(5-methyl-4-oxo-2,3,4,5-tetrahydrobenzo[b][1,4]oxazepin-3-yl)-1H-pyrazolo[3,4-b]pyridine-3-carboxamide]
1.29	CC[C@@]1(C)OCc2cnc(C(=O)N[C@@H]3CCn4nc([C@H]5CC5(F)F)cc4N(C)C3=O)cc21 [Example 324, (R)—N—((R)-2-((R)-2,2-difluorocyclopropyl)-4-methyl-5-oxo-5,6,7,8-tetrahydro-4H-pyrazolo[1,5-a][1,3]diazepin-6-yl)-1-ethyl-1-methyl-1,3-dihydrofuro[3,4-c]pyridine-6-carboxamide]
0.0103	CN1C(=O)[C@@H](NC(=O)c2ncn(Cc3cc(F)ccc3F)n2)CCn2nc(C3CC3)cc21 [Example 304, (S)—N-(2-cyclopropyl-4-methyl-5-oxo-5,6,7,8-tetrahydro-4H-pyrazolo[1,5-a][1,3]diazepin-6-yl)-1-(2,5-difluorobenzyl)-1H-1,2,4-triazole-3-carboxamide]

Same assay, conditions: tight-binding apparent inhibition constant; human RIP1 kinase domain (2-375) 50 nM, 50 uM ATP, 2 hours; read-out: Ki

Ki [µM]	SMILES
0.87	Cc1cc2n(n1)CC[C@H](NC(=O)c1ncn(C[C@H]3C[C@@H](C)C3)n1)C(=O)N2C [Example 499, N—((S)-2,4-dimethyl-5-oxo-5,6,7,8-tetrahydro-4H-pyrazolo[1,5-a][1,3]diazepin-6-yl)-1-(((1R,3S)-3-methylcyclobutyl)methyl)-1H-1,2,4-triazole-3-carboxamide]
0.121	CN1C(=O)[C@@H](NC(=O)c2nc3n(n2)[C@H](C2CCOCC2)CCC3)COc2ccccc21 (racemic) [Example 410, (S)—N—((S)-5-methyl-4-oxo-2,3,4,5-tetrahydrobenzo[b][1,4]oxazepin-3-yl)-5-(tetrahydro-2H-pyran-4-yl)-5,6,7,8-tetrahydro-[1,2,4]triazolo[1,5-a]pyridine-2-carboxamide]
0.24	CN1C(=O)[C@@H](NC(=O)c2nc3n(n2)CCC32CCOCC2)COc2ccccc21 [Example 634, N-[(3S)-5-methyl-4-oxo-2,3-dihydro-1,5-benzoxazepin-3-yl]spiro[5,6-dihydropyrrolo[1,2-b][1,2,4]triazole-7,4′-tetrahydropyran]-2-carboxamide]
2.1	CN1C(=O)[C@@H](NC(=O)c2nccc(C3(O)CCC3)n2)COc2ccccc21 [Example 537, 4-(1-hydroxycyclobutyl)-N-[(3S)-5-methyl-4-oxo-2,3-dihydro-1,5-benzoxazepin-3-yl]pyrimidine-2-carboxamide]
0.565	CN1C(=O)[C@@H](NC(=O)c2nc3n(n2)[C@@H](C2CCOCC2)CCC3)COc2ccccc21 (racemic) [Example 409, (R)—N—((S)-5-methyl-4-oxo-2,3,4,5-tetrahydrobenzo[b][1,4]oxazepin-3-yl)-5-(tetrahydro-2H-pyran-4-yl)-5,6,7,8-tetrahydro-[1,2,4]triazolo[1,5-a]pyridine-2-carboxamide]
0.15	Cc1cc(F)c2c(c1)OC[C@H](NC(=O)c1nc3n(n1)[C@@H](C(C)C)CCC3)C(=O)N2 (single isomer, unassigned) [Example 438]
0.017	CN1C(=O)[C@@H](NC(=O)c2ncn(Cc3ccc(F)c(F)c3)n2)CCn2nccc21 (racemic) [Example 341, 1-[(3,4-difluorophenyl)methyl]-N-[rac-(6S)-4-methyl-5-oxo-7,8-dihydro-6H-pyrazolo[1,5-a][1,3]diazepin-6-yl]-1,2,4-triazole-3-carboxamide]
0.014	O=C(N[C@H]1COc2cc(F)cc(F)c2NC1=O)c1nc2n(n1)CCC2c1ccccc1 (stereo in doubt) [Example 626, (7R)-7-phenyl-N-[(3S)-6,8-difluoro-4-oxo-3,5-dihydro-2H-1,5-benzoxazepin-3-yl]-6,7-dihydro-5H-pyrrolo[1,2-b][1,2,4]triazole-2-carboxamide]
0.0335	CCC1CCc2nc(C(=O)N[C@H]3COc4cc(C)cc(F)c4NC3=O)nn21 (stereo partly drawn) [Example 349, 5-ethyl-N-[(3S)-6-fluoro-8-methyl-4-oxo-3,5-dihydro-2H-1,5-benzoxazepin-3-yl]-6,7-dihydro-5H-pyrrolo[1,2-b][1,2,4]triazole-2-carboxamide]
0.58	Cc1cc2n(n1)CC[C@H](NC(=O)c1ncn(CC3CCC(F)(F)C3)n1)C(=O)N2C (stereo partly drawn) [Example 569, 1-[(3,3-difluorocyclopentyl)methyl]-N-(6S)-2,4-dimethyl-5-oxo-7,8-dihydro-6H-pyrazolo[1,5-a][1,3]diazepin-6-yl-1,2,4-triazole-3-carboxamide]
0.018	CN1C(=O)[C@@H](NC(=O)c2nc3n(n2)CCO[C@H]3c2ccccc2)COc2ccccc21 [Example 516, (8S)-8-phenyl-N-[(3S)-5-methyl-4-oxo-2,3-dihydro-1,5-benzoxazepin-3-yl]-6,8-dihydro-5H-[1,2,4]triazolo[5,1-c][1,4]oxazine-2-carboxamide]
0.0412	CN1C(=O)[C@H](NC(=O)c2nnc(Cc3ccccc3)[nH]2)CCn2nc([C@H]3CC3(F)F)cc21 (racemic) [Example 673, 5-benzyl-N-[rac-(6R)-4-methyl-5-oxo-2-[rac-(1R)-2,2-difluorocyclopropyl]-7,8-dihydro-6H-pyrazolo[1,5-a] [1,3]diazepin-6-yl]-4H-1,2,4-triazole-3-carboxamide]
0.0282	CN1C(=O)[C@@H](NC(=O)c2ncn(Cc3ccc(F)cc3)n2)CCn2nccc21 (racemic) [Example 339, 1-[(4-fluorophenyl)methyl]-N-[rac-(6S)-4-methyl-5-oxo-7,8-dihydro-6H-pyrazolo[1,5-a][1,3]diazepin-6-yl]-1,2,4-triazole-3-carboxamide]
0.0057	CN1C(=O)[C@@H](NC(=O)c2ncc3c(n2)C2(CCC2)OC3)COc2ccccc21 [Example 616, N-[(3S)-5-methyl-4-oxo-2,3-dihydro-1,5-benzoxazepin-3-yl]spiro[5H-furo[3,4-d]pyrimidine-7,1′-cyclobutan]-2-carboxamide]
0.19	CN1C(=O)[C@@H](NC(=O)c2ncn(Cc3ccccn3)n2)CCn2nc(C3CC3)cc21 [Example 652]

— patent US10988459B2 (priority 2015, dated 2021)
